How the values were obtained:
IDO1 in SKOV3 cells = target: T1, IDO1 in SKOV3 cells (Homo sapiens, UniProt P14902); experiment: Cell-based IDO inhibitory activity in IFNγ-stimulated SKOV3 cells (NFK + kynurenine by LCMS); details: IFNγ 50 ng/ml, 200 uM L-tryptophan, 24 hours
T1 construct: SKOV3 cells (NCI, No. 0503405) which upregulate IDO1 after stimulation with IFNγ; host or cells: SKOV3 cells stimulated with IFNγ
Description: 3) Testing Compounds for IDO/TDO Inhibitory Activity and Toxicity in Cell-Based Assays
SW48 cells (ATCC, CCL-231) are used to measure compounds for TDO inhibitory activity and are routinely maintained in DMEM high glucose/GlutaMAX™/pyruvate 90% (v/v), FCS 10% (v/v), Penicilin/streptomycin 1% (v/v). SKOV3 cells (NCI, No. 0503405) which upregulate IDO1 after stimulation with IFNγ are used to measure compounds for IDO inhibitory activity. SKOV3 cells are routinely maintained in RPMI 90% (v/v), FCS 10% (v/v), Penicilin/streptomycin 1% (v/v). SW48 or SKOV3 cells are seeded in 384 well plates at a density of 8000 cells in 45 ul per well or 4000 cells in 45 ul per well, respectively. Plates are incubated at 37° C./5% CO2 for 24 hours. On the next day, 10 ul compound in serial dilutions (tested concentration range 10 uM-40 nM) and 200 uM L-tryptophan are added (SKV03 receive in addition IFNγ at a final concentration of 50 ng/ml). After 24 hours of incubation at 37° C./5% CO2, 3 ul of the supernatant per well is transferred to 25 ul H2O per well in a 384 deep well plate and 25 ul of the supernatant per well is transferred to waste. The SKOV3 and SW48 cell plates with 25 ul supernatant per well remaining are used to measure viability (see below). The 384 deep well plate containing 3 ul supernatant and 25 ul H2O per well are further processed for LCMS: After the addition of 100 ul L-tryptophan-(indole-d5) (Sigma 615862) at 200 nM in methanol, the 384 deep well plates are centrifuged for 10 minutes at 3220×g at 4° C., 75 ul H2O is added per well and plates centrifuged again for 10 minutes at 3220×g at 4° C. N-formylkynurenine and kynurenine are quantified by LCMS, normalized to the internal standard L-tryptophan-(indole-d5) and the sum is calculated. Samples with 0.2% DMSO (0% effect) and a TDO/IDO inhibitor (100% effect) are used as control samples to set the parameters for the non-linear regression necessary for the determination of the IC50 for each compound. For each compound concentration the percentage of activity compared to 0% and 100% effect is calculated as average±STDEV (each concentration measured in duplicate). IC50 values and curves are generated with XLfit software (IDBS) using Dose-Response One Site model 203. The calculated IC50 values may fluctuate depending on the daily cellular assay performance. Fluctuations of this kind are known to those skilled in the art. When compounds are measured multiple times, mean values are given.

[1] = target: T2, Recombinant full-length human IDO1 (Homo sapiens, UniProt P14902); experiment: IDO1 enzymatic assay (NFK quantified by LCMS); type: biochemical; details: 2 nM enzyme, 5 μM L-tryptophan, 30 min pre-incubation, pH6.5; mean if measured multiple times; read-out: hIDO activity (IC50 in nM)
T2 construct: Recombinant full-length human IDO1 with a N-terminal hexahistidine tag; hexahistidine (N); made in house; host or cells: E. coli
Protocol: 1) Testing Compounds for IDO Inhibitory Activity in an IDO1 Enzymatic Assay:
Recombinant full-length human IDO1 with a N-terminal hexahistidine tag expressed in E. coli and purified to homogeneity is incubated at a final concentration of 2 nM in assay buffer consisting of 37.5 mM phosphate buffer at pH6.5 supplemented with 10 mM ascorbic acid, 0.45 μM methylene blue, 50 U/ml catalase, 0.01% BSA, and 0.01% Tween 20 (protocol modified from Seegers et al, JBS 2014). Example compounds are serially diluted in DMSO, further diluted in phosphate buffer, and added to the enzyme at final concentrations ranging from 10 μM to 0.5 nM. The final DMSO concentration is 0.6%. Following a pre-incubation of 30 minutes at RT, the reaction is started by the addition of L-tryptophan at a final concentration of 5 μM in assay buffer. After 30 minutes of incubation at RT, 3 μL of the 20 μl reaction mixture are transferred to a 384 deep well plate containing 25 μL of deionized water. 100 μl of 200 nM L-Tryptophan-(indole-d5) in cold 100% methanol are added followed by a 10 minutes centrifugation at 3220×g at 4° C. An additional 75 μL of deionized water are then added followed by a 10 minutes centrifugation at 3220×g at 4° C. The product of the reaction N′-Formylkynurenine (NFK) is quantified by LCMS and normalized to the L-Tryptophan-(indole-d5) signal. Samples with 0.6% DMSO (0% effect) and a TDO/IDO inhibitor (100% effect) are used as control samples to set the parameters for the non-linear regression necessary for the determination of the half-maximal inhibitory concentration (IC50) for each compound. For each compound concentration the percentage of activity compared to 0% and 100% effect is calculated as average±STDEV (each concentration measured in duplicate). IC50 values and curves are generated with XLfit software (IDBS) using Dose-Response One Site model 203 (four parameter logistic curve model). The calculated IC50 values may fluctuate depending on the daily assay performance. Fluctuations of this kind are known to those skilled in the art. When compounds are measured multiple times, mean values are given.

[2] = target: T3, Recombinant human TDO comprising amino acids 19-407 (Homo sapiens, UniProt P48775); experiment: TDO2 enzymatic assay (NFK quantified by LCMS); type: biochemical; details: 15 nM enzyme, 200 μM L-tryptophan, 30 min pre-incubation, pH7; mean if measured multiple times; read-out: hTDO activity (IC50 in nM)
T3 construct: human TDO comprising amino acids 19-407; hexahistidine (N); made in house; host or cells: E. coli
Protocol: 2) Testing Compounds for TDO Inhibitory Activity in a TDO2 Enzymatic Assay:
Recombinant human TDO comprising amino acids 19-407 with a N-terminal hexahistidine tag expressed in E. coli and purified to homogeneity is incubated at a final concentration of 15 nM in assay buffer consisting of 75 mM phosphate buffer at pH7 supplemented with 100 μM ascorbic acid, 50 U/ml Catalase, 0.01% BSA, and 0.01% Tween 20 (protocol modified from Seegers et al, JBS 2014). Example compounds are serially diluted in DMSO, further diluted in phosphate buffer, and added to the reaction mixture at final concentrations ranging from 10 μM to 0.5 nM. The final DMSO concentration is 0.6%. Following a pre-incubation of 30 minutes at RT, the reaction is started by the addition of L-tryptophan at a final concentration of 200 μM in assay buffer. After 30 minutes of incubation at RT, 3 μL of the reaction mixture are transferred to a 384 deep well plate containing 25 μL of deionized water. 100 μl of 200 nM L-Tryptophan-(indole-d5) in cold 100% methanol are added followed by a 10 minutes centrifugation at 3220×g at 4° C. An additional 75 μL of deionized water are then added followed by a 10 minutes centrifugation at 3220×g at 4° C. The product of the reaction N′-Formylkynurenine (NFK) is quantified by LCMS and normalized to the L-Tryptophan-(indole-d5) signal. Samples with 0.6% DMSO (0% effect) and a TDO/IDO inhibitor (100% effect) are used as control samples to set the parameters for the non-linear regression necessary for the determination of the half-maximal inhibitory concentration (IC50) for each compound. For each compound concentration the percentage of activity compared to 0% and 100% effect is calculated as average±STDEV (each concentration measured in duplicate). IC50 values and curves are generated with XLfit software (IDBS) using Dose-Response One Site model 203 (four parameter logistic curve model). The calculated IC50 values may fluctuate depending on the daily assay performance. Fluctuations of this kind are known to those skilled in the art. When compounds are measured multiple times, mean values are given.

T1 sequence (P14902 whole entry): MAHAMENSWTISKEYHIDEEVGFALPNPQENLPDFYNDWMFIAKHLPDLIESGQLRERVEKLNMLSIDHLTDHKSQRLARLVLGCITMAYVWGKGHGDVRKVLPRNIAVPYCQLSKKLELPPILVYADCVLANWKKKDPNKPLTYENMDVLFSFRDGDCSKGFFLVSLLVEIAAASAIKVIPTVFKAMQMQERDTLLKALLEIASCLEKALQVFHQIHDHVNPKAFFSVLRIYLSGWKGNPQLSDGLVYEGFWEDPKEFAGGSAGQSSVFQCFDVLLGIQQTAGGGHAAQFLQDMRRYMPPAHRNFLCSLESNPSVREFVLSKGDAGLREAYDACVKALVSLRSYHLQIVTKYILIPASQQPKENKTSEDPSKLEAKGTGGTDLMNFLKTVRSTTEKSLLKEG
T2 sequence (P14902 whole entry): as above
T3 sequence (P48775 19-406 limits assumed): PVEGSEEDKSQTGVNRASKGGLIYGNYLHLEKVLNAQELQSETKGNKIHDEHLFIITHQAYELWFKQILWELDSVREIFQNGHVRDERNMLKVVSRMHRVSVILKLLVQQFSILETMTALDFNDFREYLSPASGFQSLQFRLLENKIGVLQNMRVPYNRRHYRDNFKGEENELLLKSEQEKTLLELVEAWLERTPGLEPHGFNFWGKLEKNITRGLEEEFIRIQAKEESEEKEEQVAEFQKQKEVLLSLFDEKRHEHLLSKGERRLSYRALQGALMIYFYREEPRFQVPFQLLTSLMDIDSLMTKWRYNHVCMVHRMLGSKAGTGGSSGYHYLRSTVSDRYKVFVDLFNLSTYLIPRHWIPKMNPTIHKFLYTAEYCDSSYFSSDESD

Compound | IC50 (IDO1 in SKOV3 cells) | IC50 [1] | IC50 [2]
Cc1c(C(O)c2c(Cl)ccc3cncn23)nnn1-c1ccccc1 (racemic) [Example 38, rac-(6-Chloro-imidazo[1,5-a]pyridin-5-yl)-(5-methyl-1-phenyl-1H-[1,2,3]triazol-4-yl)-methanol] | 86 nM | 5.43 nM | 4710 nM
COc1ccc(-n2cc([C@H](O)c3c(C4CC4)ncc4cncn34)nn2)cc1Cl [Example 11a, (R)-[1-(3-Chloro-4-methoxy-phenyl)-1H-[1,2,3]triazol-4-yl]-(6-cyclopropyl-imidazo[1,5-a]pyrazin-5-yl)-methanol] | 23.7 nM | 8.17 nM | > 10200 nM
COC(=O)Nc1ccc(-n2cc(C(O)c3c(C4CC4)ccc4cncn34)nn2)cc1 (racemic) [Example 6, rac-(4-{4-[(6-Cyclopropyl-imidazo[1,5-a]pyridin-5-yl)-hydroxy-methyl]-[1,2,3]triazol-1-yl}-phenylycarbamic acid methyl ester] | 11.8 nM | 9.14 nM | > 10200 nM
Oc1ccc(-n2cc([C@H](O)c3c(C4CC4)ncc4cncn34)nn2)cc1Cl [Example 10a, 2-Chloro-4-{4-[(R)-(6-cyclopropyl-imidazo[1,5-a]pyrazin-5-yl)-hydroxy-methyl]-[1,2,3]triazol-1-yl}-phenol] | 12.5 nM | 2.93 nM | > 10200 nM
CCc1ccc2cncn2c1[C@@H](O)c1cn(-c2ccc(OC)cc2)nn1 [Example 34a, (R)-(6-Ethyl-imidazo[1,5-a]pyridin-5-yl)-[1-(4-methoxy-phenyl)-1H-[1,2,3]triazol-4-yl]-methanol] | 7.92 nM | 1.82 nM | > 10200 nM
O[C@@H](c1cn(-c2ccc(OCC3COC3)c(F)c2)nn1)c1c(C2CC2)ncc2cncn12 [Example 36, (R)-(6-Cyclopropyl-imidazo[1,5-a]pyrazin-5-yl)-{1-[3-fluoro-4-(oxetan-3-ylmethoxy)-phenyl]-1H-[1,2,3]triazol-4-yl}-methanol] | 16.8 nM | 8.33 nM | > 10200 nM
O[C@@H](c1cn(-c2ccc(N3CCC34COC4)cc2)nn1)c1c(C2CC2)ncc2cncn12 [Example 46, (R)-(6-Cyclopropyl-imidazo[1,5-a]pyrazin-5-yl)-{1-[4-(6-oxa-1-aza-spiro[3.3]hept-1-yl)-phenyl]-1H-[1,2,3]triazol-4-yl}-methanol] | 356 nM | 15.1 nM | > 10200 nM
OC(c1cn(-c2ccc(OCC3(F)COC3)cc2)nn1)c1c(C2CC2)ccc2cncn12 (racemic) [Example 19, rac-(6-Cyclopropyl-imidazo[1,5-a]pyridin-5-yl)-{1-[4-(3-fluoro-oxetan-3-ylmethoxy)-phenyl]-1H-[1,2,3]triazol-4-yl}-methanol] | 11.6 nM | 13.7 nM | > 10200 nM
COC(=O)Nc1ccc(-n2cc(C(O)c3c(C4CC4)ncc4cncn34)nn2)cc1 (racemic) [Example 12, rac-(4-{4-[(6-Cyclopropyl-imidazo[1,5-a]pyrazin-5-yl)-hydroxy-methyl]-[1,2,3]triazol-1-yl}-phenyl)-carbamic acid methyl ester] | 73.9 nM | 21.5 nM | > 10200 nM
COc1cc(F)c(-n2cc([C@H](O)c3c(Cl)ccc4cncn34)nn2)cc1F [Example 31, (R)-(6-Chloro-imidazo[1,5-a]pyridin-5-yl)-[1-(2,5-difluoro-4-methoxy-phenyl)-1H-[1,2,3]triazol-4-yl]-methanol] | 9.2 nM | 1.13 nM | > 10200 nM
Cc1ccc2cncn2c1C(O)c1cn(-c2ccccc2)nn1 (racemic) [Example 2, rac-(6-Methyl-imidazo[1,5-a]pyridin-5-yl)-(1-phenyl-1H-[1,2,3]triazol-4-yl)-methanol] | 225 nM | 6.17 nM | > 10200 nM
CCc1ccc2cncn2c1[C@@H](O)c1cn(-c2cc(F)c(OC)cc2F)nn1 [Example 35a, (R)-[1-(2,5-Difluoro-4-methoxy-phenyl)-1H-[1,2,3]triazol-4-yl]-(6-ethyl-imidazo[1,5-a]pyridin-5-yl)-methanol] | 0.95 nM | 2.39 nM | > 10200 nM
CCOc1ccc(-n2cc(C(O)c3c(C4CC4)ccc4cncn34)nn2)cn1 (racemic) [Example 9, rac-(6-Cyclopropyl-imidazo[1,5-a]pyridin-5-yl)-[1-(6-ethoxy-pyridin-3-yl)-1H-[1,2,3]triazol-4-yl]-methanol] | 31.2 nM | 5.43 nM | > 10200 nM
Cc1ccc2cncn2c1[C@@H](O)c1cn(-c2ccccc2)nn1 [Example 2a, (R)-(6-Methyl-imidazo[1,5-a]pyridin-5-yl)-(1-phenyl-1H-[1,2,3]triazol-4-yl)-methanol] | 84.9 nM | 4.29 nM | > 10200 nM

Reference: patent US20220259212A1, “INHIBITORS OF INDOLEAMINE 2,3-DIOXYGENASE AND/OR TRYPTOPHAN 2,3-DIOXYGENASE” (Idorsia Pharmaceuticals Ltd, priority 2019, published 2022)
